Structures are written as SMILES. Bounds are passed on as bounds.

For 38 compounds, IC50 results are on record in patent US6964975B2, “Isoxazole and thiazole compounds and use thereof as medicine” (Kirin Beer Kabushiki Kaisha, priority 2000, dated 2005).

T1 sequence (Q92633 whole entry): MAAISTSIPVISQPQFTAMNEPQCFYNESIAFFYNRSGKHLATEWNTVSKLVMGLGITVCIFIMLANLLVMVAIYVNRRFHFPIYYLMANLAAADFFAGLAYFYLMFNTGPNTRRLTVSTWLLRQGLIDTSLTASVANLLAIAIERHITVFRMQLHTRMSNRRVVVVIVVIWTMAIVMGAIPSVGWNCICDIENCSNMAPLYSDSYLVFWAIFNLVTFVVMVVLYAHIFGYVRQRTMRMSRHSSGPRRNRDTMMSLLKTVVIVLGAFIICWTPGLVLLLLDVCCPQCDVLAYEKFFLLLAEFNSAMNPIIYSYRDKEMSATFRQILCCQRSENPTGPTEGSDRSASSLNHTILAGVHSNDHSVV

The test addresses T1, human EDG-2 (Homo sapiens, UniProt Q92633).
T1 construct: cDNA of the cloned human EDG-2 was introduced into pEFneo, which is an animal expression vector; expressed in transfected cells; host or cells: HepG2
Description: Inhibitory activity on LPA-induced elevation of intracellular Ca2+ level. Format: cell-based. To be noted: 50% inhibition of elevation of intracellular Ca2+ level by LPA, human EDG-2/HepG2 cells, fura-2. From the text: The human EDG-2 expression plasmid was introduced into HepG2 cells by electroporation. After the introduction, culturing was continued while exchanging selective media every 3 to 4 days, thereby obtaining an expressed colony. Regarding these cells, Ca-influx and cell-proliferation by LPA, level of [^3H] LPA binding and the like were inspected to select a cell line which highly expresses human EDG-2 (human EDG-2/HepG2).
Human EDG-2/HepG2 cells were washed and then suspended in 0.1% BSA (bovine serum albumin)-containing HEPES buffer. A fluorescent indicator, fura-2/AM (Wako Pure Chemical Industries, Ltd.), was added, and the mixture was shaken at room temperature for 45 minutes so that the indicator is included in the cell. Cells were washed again and then suspended in 0.1% BSA-containing HEPES buffer, and intracellular Ca^2+ level was assayed using FDSS2000 (Hamamatsu Photonics). […] Each test compound was added to the cell suspension followed by the addition of LPA, thereby examining the inhibitory activity of the test compound on the function of LPA for elevating the intracellular Ca level. […] The lower the IC50 value, the higher the antagonistic activity on the LPA receptor.
In the case of `Cc1onc(-c2cccc(F)c2)c1NC(=O)OC(C)c1ccccc1Cl` (centres unmarked) [Compound 21, 1-(2-Chlorophenyl)ethyl N-[3-(3-fluorophenyl)-5-methyl-4-isoxazolyl]carbamate], the IC50 (usually the midpoint of a concentration-inhibition curve) stood at 3 µM. That is a single-digit micromolar value. With `Cc1onc(-c2cccc(Br)c2)c1NC(=O)OC(C)c1ccccc1Cl` (centres unmarked) [Compound 13, 1-(2-Chlorophenyl)ethyl N-[3-(3-bromophenyl)-5-methyl-4-isoxazolyl]carbamate] the figure was 30 µM. With `Cc1onc(-c2ccccc2)c1NC(=O)OCCC(C)C` [Compound 100, Isopentyl N-(5-methyl-3-phenyl-4-isoxazolyl)carbamate] the figure was 30 to 100 µM. To `Cc1onc(-c2ccccc2)c1NC(=O)O[C@@H](C)c1ccccc1` [Compound 10, (1S)-1-Phenylethyl N-(5-methyl-3-phenyl-4-isoxazolyl)carbamate] belongs no less than 100 µM.

Turning to `Cc1noc(-c2ccc(CNCCc3ccccn3)cc2)c1NC(=O)OC(C)c1ccccc1Cl` (centres unmarked) [Compound 90, 1-(2-Chlorophenyl)ethyl N-(3-methyl-5-[4-[([2-(2-pyridyl)ethyl]amino)methyl]phenyl]-4-isoxazolyl)carbamate], the half-maximal inhibitory concentration (IC50) turned out to be 10 µM. With `CCc1noc(-c2ccc(C#N)cc2)c1NC(=O)OC(C)c1ccccc1Cl` (centres unmarked) [Compound 77, 1-(2-Chlorophenyl)ethyl N-[5-(4-cyanophenyl)-3-ethyl-4-isoxazolyl]carbamate], the IC50 lay within 1 to 3 µM. To `Cc1noc(-c2cccs2)c1NC(=O)OC(C)c1ccccc1Cl` (centres unmarked) [Compound 57, 1-(2-Chlorophenyl)ethyl N-[3-methyl-5-(2-thienyl)-4-isoxazolyl]carbamate] belongs 3 µM. `Cc1noc(-c2ccc(OC(F)(F)F)cc2)c1NC(=O)OC(C)c1ccccc1Cl` (centres unmarked) [Compound 36, 1-(2-Chlorophenyl)ethyl N-[5-[4-(trifluoromethoxy)phenyl]-3-methyl-4-isoxazolyl]carbamate] yielded an IC50 of 3 to 10 µM. With `Cc1onc(-c2ccccc2)c1NC(=O)OC(c1ccccc1)C(F)(F)F` (centres unmarked) [Compound 80, 2,2,2-Trifluoro-1-phenylethyl N-(5-methyl-3-phenyl-4-isoxazolyl)carbamate] the figure was 1 to 3 µM; with `Cc1noc(-c2cccc(F)c2)c1NC(=O)OC(C)c1ccccc1F` (centres unmarked) [Compound 34, 1-(2-Fluorophenyl)ethyl N-[5-(3-fluorophenyl)-3-methyl-4-isoxazolyl]carbamate], 10 µM; with `Cc1noc(-c2cccc([N+](=O)[O-])c2)c1NC(=O)OC(C)c1ccccc1` (centres unmarked) [Compound 58, 1-Phenylethyl N-[3-methyl-5-(3-nitrophenyl)-4-isoxazolyl]carbamate], 10 µM. `CCCCc1ccc(-c2onc(C)c2NC(=O)OC(C)c2ccccc2Cl)cc1` (centres unmarked) [Compound 65, 1-(2-Chlorophenyl)ethyl N-[5-(4-butylphenyl)-3-methyl-4-isoxazolyl]carbamate]: the IC50 lay in the range of 10 to 30 µM. With `Cc1ccccc1CCOC(=O)Nc1c(-c2ccccc2)noc1C` [Compound 95, 2-Methylphenethyl N-(5-methyl-3-phenyl-4-isoxazolyl)carbamate] the figure was 30 to 100 µM. To `Cc1noc(-c2ccc(CN3CC(C)OC(C)C3)cc2)c1NC(=O)OC(C)c1ccccc1Cl` (centres unmarked) [Compound 89, 1-(2-Chlorophenyl)ethyl N-(5-[4-[(2,6-dimethylmorpholino)methyl]phenyl]-3-methyl-4-isoxazolyl)carbamate] belongs 10 to 30 µM. On to `Cc1noc(-c2ccc(CCl)cc2)c1NC(=O)OC(C)c1ccccc1F` (centres unmarked) [Compound 155, 1-(2-Fluorophenyl)ethyl N-{5-[4-(chloromethyl)phenyl]-3-methyl-4-isoxazolyl}carbamate], for which the half-inhibitory concentration (IC50) is 3 to 10 µM. To `Cc1ccc(-c2onc(C)c2NC(=O)OC(C)c2ccccc2F)cc1` (centres unmarked) [Compound 49, 1-(2-Fluorophenyl)ethyl N-[3-methyl-5-(4-methylphenyl)-4-isoxazolyl]carbamate] belongs 10 to 30 µM. To `Cc1noc(-c2cccc(CSCCO)c2)c1NC(=O)OC(C)c1ccccc1Cl` (centres unmarked) [Compound 131, 1-(2-Chlorophenyl)ethyl N-[5-(3-{[(2-hydroxyethyl)sulfanyl]methyl}phenyl)-3-methyl-4-isoxazolyl]carbamate] belongs 3 µM; to `Cc1noc(-c2ccsc2)c1NC(=O)OC(C)c1ccccc1Cl` (centres unmarked) [Compound 75, 1-(2-Chlorophenyl)ethyl N-[3-methyl-5-(3-thienyl)-4-isoxazolyl]carbamate], 3 to 10 µM; to `CCCCc1ccc(-c2onc(C)c2NC(=O)OC(C)c2ccccc2)cc1` (centres unmarked) [Compound 64, 1-Phenylethyl N-[5-(4-butylphenyl)-3-methyl-4-isoxazolyl]carbamate], 10 to 30 µM. With `Cc1onc(-c2ccccc2)c1NC(=O)OC(C)c1ccccc1F` (centres unmarked) [Compound 19, 1-(2-Fluorophenyl)ethyl N-(5-methyl-3-phenyl-4-isoxazolyl)carbamate] the figure was 3 to 10 µM; with `Cc1ccccc1C(C)OC(=O)Nc1c(-c2ccccc2)noc1C` (centres unmarked) [Compound 14, 1-(2-Methylphenyl)ethyl N-(5-methyl-3-phenyl-4-isoxazolyl)carbamate], 30 to 100 µM; with `CCc1noc(-c2ccc(CCl)cc2)c1NC(=O)OC(C)c1ccccc1F` (centres unmarked) [Compound 160, 1-(2-Fluorophenyl)ethyl N-{5-[4-(chloromethyl)phenyl]-3-ethyl-4-isoxazolyl}carbamate], 3 to 10 µM. The compound `Cc1noc(-c2cccc(F)c2)c1NC(=O)OC(C)c1ccccc1` (centres unmarked) [Compound 29, 1-Phenylethyl N-[5-(3-fluorophenyl)-3-methyl-4-isoxazolyl]carbamate] displayed an IC50 of 10 µM.

For `Cc1onc(-c2ccccc2)c1NC(=O)O[C@H](C)c1ccccc1` [Compound 9, (1R)-1-Phenylethyl N-(5-methyl-3-phenyl-4-isoxazolyl)carbamate], the IC50 fell in the range of 10 to 30 µM. To `Cc1noc(-c2ccccc2F)c1NC(=O)OC(C)c1ccccc1Cl` (centres unmarked) [Compound 43, 1-(2-Chlorophenyl)ethyl N-[5-(2-fluorophenyl)-3-methyl-4-isoxazolyl]carbamate] belongs 3 to 10 µM; to `Cc1noc(-c2ccc(OC(F)(F)F)cc2)c1NC(=O)OC(C)c1ccccc1F` (centres unmarked) [Compound 45, 1-(2-Fluorophenyl)ethyl N-[3-methyl-5-[4-(trifluoromethoxy)phenyl]-4-isoxazolyl]carbamate], 3 µM.

Consider `Cc1noc(-c2ccc(OC(F)(F)F)cc2)c1NC(=O)O[C@H](C)c1ccccc1Br` [Compound 44, (1R)-1-(2-Bromophenyl)ethyl N-[3-methyl-5-[4-(trifluoromethoxy)phenyl]-4-isoxazolyl]carbamate], for which the IC50 worked out at 3 µM. To `Cc1onc(-c2ccccc2)c1NC(=O)O[C@H](C)c1ccccc1Br` [Compound 22, (1R)-1-(2-Bromophenyl)ethyl N-(5-methyl-3-phenyl-4-isoxazolyl)carbamate] belongs 3 to 10 µM. To `Cc1noc(-c2ccccc2)c1NC(=O)OC(C)c1ccccc1Cl` (centres unmarked) [Compound 3, 1-(2-Chlorophenyl)ethyl N-(3-methyl-5-phenyl-4-isoxazolyl)carbamate] belongs 3 µM. To `Cc1noc(-c2ccc([N+](=O)[O-])cc2)c1NC(=O)OC(C)c1ccccc1` (centres unmarked) [Compound 54, 1-Phenylethyl N-[3-methyl-5-(4-nitrophenyl)-4-isoxazolyl]carbamate] belongs 10 to 30 µM; to `Cc1noc(-c2ccc(Cl)nc2)c1NC(=O)OC(C)c1ccccc1Cl` (centres unmarked) [Compound 63, 1-(2-Chlorophenyl)ethyl N-[5-(6-chloro-3-pyridyl)-3-methyl-4-isoxazolyl]carbamate], 30 µM; to `Cc1ccc(-c2onc(C)c2NC(=O)OC(C)c2ccccc2)cc1` (centres unmarked) [Compound 37, 1-Phenylethyl N-[3-methyl-5-(4-methylphenyl)-4-isoxazolyl]carbamate], 30 µM. Take `Cc1onc(-c2ccc(F)cc2)c1NC(=O)OC(C)c1ccccc1Cl` (centres unmarked) [Compound 16, 1-(2-Chlorophenyl)ethyl N-[3-(4-fluorophenyl)-5-methyl-4-isoxazolyl]carbamate]: the concentration for half-maximal inhibition (IC50) lay within 3 to 10 µM. With `Cc1noc(-c2ccc(CN3CCOCC3)cc2)c1NC(=O)OC(C)c1ccccc1Cl` (centres unmarked) [Compound 88, 1-(2-Chlorophenyl)ethyl N-[3-methyl-5-[4-(morpholinomethyl)phenyl]-4-isoxazolyl]carbamate] the figure was 3 to 10 µM; with `Cc1onc(-c2ccccc2)c1NC(=O)OC(C)c1ccccc1Br` (centres unmarked) [Compound 23, 1-(2-Bromophenyl)ethyl N-(5-methyl-3-phenyl-4-isoxazolyl)carbamate], 10 µM.

In turn, `Cc1ccc(-c2onc(C)c2NC(=O)O[C@H](C)c2ccccc2Br)cc1` [Compound 48, (1R)-1-(2-Bromophenyl)ethyl N-[3-methyl-5-(4-methylphenyl)-4-isoxazolyl]carbamate] showed an IC50 of 3 to 10 µM. To `Cc1noc(-c2ccccc2Br)c1NC(=O)OC(C)c1ccccc1Cl` (centres unmarked) [Compound 51, 1-(2-Chlorophenyl)ethyl N-[5-(2-bromophenyl)-3-methyl-4-isoxazolyl]carbamate] belongs 10 to 30 µM. With `Cc1noc(-c2cccc(CCl)c2)c1NC(=O)OC(C)c1ccccc1Cl` (centres unmarked) [Compound 70, 1-(2-Chlorophenyl)ethyl N-[5-[3-(chloromethyl)phenyl]-3-methyl-4-isoxazolyl]carbamate] the figure was 1 to 3 µM.
